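Results reflect a 48-hour exposure of cells in 96-well plates to compound at five concentrations. GI50 is the concentration that inhibits growth by half.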 Active and inactive are the calls of the source. Rule as the data show it: active = GI50 up to about 1.1 µM and inactive = higher.
Tests used:
Assay in all cases: growth of human tumour cells (NCI), 48 h
786-0 = test system: 786-0
CCRF-CEM = test system: CCRF-CEM
HCT-116 = test system: HCT-116
HT-29 = test system: HT-29
KM12 = test system: KM12
MOLT-4 = test system: MOLT-4
NCI-H23 = test system: NCI-H23
SF-295 = test system: SF-295
SNB-19 = test system: SNB-19
SW-620 = test system: SW-620
U-251 = test system: U-251
UACC-257 = test system: UACC-257
UACC-62 = test system: UACC-62
HCT-15 = test system: HCT-15
SK-OV-3 = test system: SK-OV-3

Row | Structure (SMILES) | GI50 (786-0) | GI50 (CCRF-CEM) | GI50 (HCT-116) | GI50 (HT-29) | GI50 (KM12) | GI50 (MOLT-4) | GI50 (NCI-H23) | GI50 (SF-295) | GI50 (SNB-19) | GI50 (SW-620) | GI50 (U-251) | GI50 (UACC-257) | GI50 (UACC-62) | GI50 (HCT-15) | GI50 (SK-OV-3)
1 | NNC(=O)C(=O)N/N=C1\CCCC1C(=O)CCC(=O)Nc1cccc(Cl)c1 (stereo not drawn) | > 100 µM (inactive) | > 100 µM (inactive) | > 100 µM (inactive) | > 100 µM (inactive) | > 100 µM (inactive) | > 100 µM (inactive) | > 100 µM (inactive) | > 100 µM (inactive) | > 100 µM (inactive) | > 100 µM (inactive) | > 100 µM (inactive) | > 100 µM (inactive) | > 100 µM (inactive) | – | –
2 | O=C(c1ccccc1)C(c1ccccc1)C1(O)C(=O)Nc2c(Cl)cc(Cl)cc21 (stereo not drawn) | 14.7 µM (inactive) | 14 µM (inactive) | – | 23.9 µM (inactive) | 23 µM (inactive) | 20.3 µM (inactive) | 18 µM (inactive) | 17.7 µM (inactive) | 21.7 µM (inactive) | 14.4 µM (inactive) | 26.2 µM (inactive) | 18.6 µM (inactive) | – | 39.4 µM | 30.2 µM (inactive)
3 | O=Cc1c[nH]c2c(=O)[nH]cnc12 | > 100 µM (inactive) | > 100 µM (inactive) | > 100 µM (inactive) | > 100 µM (inactive) | > 100 µM (inactive) | > 100 µM (inactive) | > 100 µM (inactive) | > 100 µM (inactive) | > 100 µM (inactive) | > 100 µM (inactive) | – | > 100 µM (inactive) | > 100 µM (inactive) | > 100 µM | > 100 µM (inactive)
4 | N#CC(NNC(=O)c1ccccc1O)c1cccc(O)c1 (stereo not drawn) | 6.53 µM (inactive) | 4.66 µM (inactive) | 3.26 µM (inactive) | 37.6 µM (inactive) | 4.52 µM (inactive) | 58.2 µM (inactive) | 2.9 µM (inactive) | 3.67 µM (inactive) | – | 30.1 µM (inactive) | 2.99 µM (inactive) | 10.1 µM (inactive) | 1.85 µM (inactive) | 5.31 µM | 3.93 µM (inactive)
5 | CCN(CC)CC1c2ccccc2C(CNc2ccccc2)N1C (stereo not drawn) | > 100 µM (inactive) | 83.8 µM (inactive) | – | – | > 100 µM (inactive) | 80.4 µM (inactive) | > 100 µM (inactive) | > 100 µM (inactive) | > 100 µM (inactive) | > 100 µM (inactive) | – | > 100 µM (inactive) | > 100 µM (inactive) | > 100 µM | > 100 µM (inactive)
6 | COCN1C(=O)C2CC(/C=C/C(N)=O)=CN2C(=O)c2ccccc21 (stereo not drawn) | > 100 µM (inactive) | > 100 µM (inactive) | > 100 µM (inactive) | > 100 µM (inactive) | > 100 µM (inactive) | > 100 µM (inactive) | > 100 µM (inactive) | > 100 µM (inactive) | > 100 µM (inactive) | > 100 µM (inactive) | > 100 µM (inactive) | – | > 100 µM (inactive) | – | > 100 µM (inactive)
7 | COc1cc(CC2C(=O)OCC2[C@@H](OC(C)=O)c2ccc3c(c2)OCO3)c(Br)c(OC)c1OC (stereo partly drawn) | > 100 µM (inactive) | 44.7 µM (inactive) | 76.7 µM (inactive) | 35.9 µM (inactive) | 31.5 µM (inactive) | 35.2 µM (inactive) | 68.9 µM (inactive) | 33.1 µM (inactive) | > 100 µM (inactive) | 58.3 µM (inactive) | – | 69.5 µM (inactive) | 37.8 µM (inactive) | 19.1 µM | > 100 µM (inactive)
8 | CN(CCO)c1nc(=O)c2c(n1C1OC(CO)C(O)C(O)C1O)CCCC2 (stereo not drawn) | > 100 µM (inactive) | > 100 µM (inactive) | > 100 µM (inactive) | > 100 µM (inactive) | > 100 µM (inactive) | > 100 µM (inactive) | > 100 µM (inactive) | > 100 µM (inactive) | > 100 µM (inactive) | > 100 µM (inactive) | > 100 µM (inactive) | > 100 µM (inactive) | > 100 µM (inactive) | > 100 µM | > 100 µM (inactive)
